In patent US10835614B2, “Poly(diol fumarates) and poly(diol fumarate-co-succinates)” (William Marsh Rice University, priority 2016, dated 2020):
Values after ≈ are worked out from the molar mass of the structure shown.

What was measured:
Assay in all cases: MIC, CLSI M38-A2 broth microdilution antifungal susceptibility testing
[1] = system: A. fumigatus Af293; type: cell-based; details: diols tested from 1024 μg/mL to 0.0625 μg/mL, triplicate; for MIC: Aspergillus fumigatus, AF293, read-out: minimum inhibitory concentration (MIC), A. fumigatus
Method: (§1) A. fumigatus Af293, C. albicans Y4215 and Rhiozpus oryzae R0969, all clinical isolates of pathogenic species, were used to determine the antifungal activity of three different terminal diols: 1,6-hexanediol; 1,8-octanediol; and 1,10-decanediol (all purchased from Sigma-Aldrich, St. Louis, Mo.). Briefly, minimum inhibitory concentration (MIC) was determined following the Clinical Laboratory & Standards Institute (CLSI) M38-A2 broth microdilution antifungal susceptibility testing method. […] The experiment was performed in triplicate for each species and each diol.

[2] = system: C. albicans Y4215; type: cell-based; details: diols tested from 1024 μg/mL to 0.0625 μg/mL, triplicate; for MIC: Candida albicans, Y4215, read-out: minimum inhibitory concentration (MIC), C. albicans
Method: as §1

[3] = system: Rhiozpus oryzae R0969; type: cell-based, R. oryzae; details: diols tested from 1024 μg/mL to 0.0625 μg/mL, triplicate; for MIC: Rhizopus arrhizus, R0969, read-out: minimum inhibitory concentration (MIC), R. oryzae
Method: as §1

SMILES	MIC [1]	minimum inhibitory concentration (MIC), A. fumigatus [1]	MIC [2]	minimum inhibitory concentration (MIC), C. albicans [2]	MIC [3]	minimum inhibitory concentration (MIC), R. oryzae [3]
OCCCCCCO [1,6-Hexanediol, 1,6-hexanediol]	≥ 1020 µg/mL	did not demonstrate activity	≥ 1020 µg/mL	did not demonstrate activity	≥ 1020 µg/mL	did not demonstrate activity
OCCCCCCCCO [1,8-Octanediol, 1,8-octanediol]	≥ 1020 µg/mL	did not demonstrate activity	≥ 1020 µg/mL	did not demonstrate activity	≥ 1020 µg/mL	did not demonstrate activity
OCCCCCCCCCCO [1,10-Decanediol, 1,10-decanediol]	256 µg/mL (≈ 1.47 mM)	–	≥ 1020 µg/mL	–	1020 µg/mL (≈ 5.88 mM)	–
